Laboratory results: paper PMC11249646, “Small-Molecule Disruptors of the Interaction between Calcium- and Integrin-Binding Protein 1 and Integrin αIIbβ3 as Novel Antiplatelet Agents” (ACS Pharmacology & Translational Science, 2024)
Like-named read-outs stand apart in the source and are kept apart here.

Columns and labels:
[1] = target: T1, CIB1 and αIIb interaction (CIB1-GST : F-αIIb peptide) (Homo sapiens, UniProt Q99828); experiment: FP assay, 1536-well qHTS format (primary and confirmatory screen); format: binding
T1 construct: made in house; host or cells: BL-21 plus RIL cells (E. coli)
T1 sequence (Q99828 1-191): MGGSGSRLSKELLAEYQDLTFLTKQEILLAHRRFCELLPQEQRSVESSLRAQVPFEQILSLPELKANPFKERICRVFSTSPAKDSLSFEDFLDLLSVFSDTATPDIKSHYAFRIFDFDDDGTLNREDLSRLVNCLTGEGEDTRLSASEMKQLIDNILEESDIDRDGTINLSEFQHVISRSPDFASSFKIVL

[2] = target: T2, GST-CIB1 : F-scrambled peptide (Homo sapiens, UniProt Q99828); experiment: FP scrambled-peptide counter screen, 1536-well format; format: binding; details: for IC50: read-out: IC50 [μM] (counterscreen)
T2 construct: made in house; host or cells: BL-21 plus RIL cells (E. coli)
T2 sequence (Q99828 1-191): T1 sequence (Q99828 1-191)

[3] = Table S3, confirmatory screen, qHTS curve class, a negative sign marks inhibitory curves
[4] = Table S3, confirmatory screen, negative = inhibition
[5] = qHTS primary screen hits, Table S2, negative = inhibition
[6] = qHTS primary screen hits, Table S2, negative sign = inhibitory curve, several classes where COUNT > 1
[7] = qHTS primary screen hits, Table S2, read-out: IC50
[8] = Table S3, counterscreen, negative = inhibition
[9] = Table S3, counterscreen, qHTS curve class, a negative sign marks inhibitory curves
[10] = Table S3, confirmatory screen, YES/NO call
[11] = qHTS FP screen hits, Table S2, negative = inhibition
[12] = qHTS FP screen hits, Table S2, one class per curve where COUNT > 1, negative sign = inhibitory curve
[13] = qHTS FP screen hits, Table S2, read-out: IC50
[14] = Table S3, confirmatory screen, read-out: IC50 [μM] (confirmatory screen)
[15] = confirmatory screen, qHTS curve class, negative sign = inhibitory curve
[16] = confirmatory screen, read-out: IC50 [μM] (confirmatory screen)
[17] = counterscreen, qHTS curve class, negative sign = inhibitory curve

| Curve Class (confirmatory screen) [1, 3] | Efficacy (%) (confirmatory screen) [1, 4] | Efficacy (%) (counterscreen) [2, 8] | IC50 ([2]; Table S3, counterscreen) [µM] | Curve Class (counterscreen) [2, 9] | Confirm? (confirmatory screen) [1, 10] | Efficacy (%) [1, 11] [%] | Curve Class [1, 12] | IC50 [1, 13] [µM] | IC50 [1, 14] [µM] | SMILES | further results |
| --- | --- | --- | --- | --- | --- | --- | --- | --- | --- | --- | --- |
| -2.2 | -65 | -105 | 79.4 | -2.1 | YES | -58 | -2.2 | 56.2 | 50.1 | COc1ccc(CC(NC(C)=O)C(=O)O)cc1 (stereo not drawn) [NCGC00384987-01] | – |
| -1.1 | -85 | -86 | 15.8 | -1.1 | YES | -54 | -2.2 | 31.6 | 11.2 | OC[C@H]1O[C@@H](Oc2ccc(O)c3cccc(O)c23)[C@H](O)[C@@H](O)[C@@H]1O [NCGC00385147-01] | – |
| -2.1 | -124 | -123 | 44.7 | -2.1 | YES | -116 | -2.1 | 44.7 | 50.1 | Cc1c(Cc2ccc3ccccc3n2)c2cc(F)ccc2n1CC(=O)O [NCGC00386286-04] | – |
| – | – | – | – | – | – | -54 | -2.2 | 56.2 | – | CCN(CC)CCN(Cc1ccc(-c2ccc(C(F)(F)F)cc2)cc1)C(=O)Cn1c(SCc2ccc(F)cc2)nc(=O)c2c1CCC2 [NCGC00386337-05] | Efficacy (%) (confirmatory screen) ([1]; confirmatory screen): -65%; Confirm? (confirmatory screen) ([1]; confirmatory screen, YES/NO): YES; Curve Class (confirmatory screen) [1, 15]: -1.2; IC50 [1, 16]: 35.5 µM; Efficacy (%) (counterscreen) ([2]; counterscreen): -46%; Curve Class (counterscreen) [2, 17]: -2.2; IC50 ([2]; counterscreen): 31.6 µM |
| -1.2 | -44 | -72 | 44.7 | -2.2 | YES | – | – | – | 25.1 | COc1ccc2[nH]c([S+]([O-])Cc3ncc(C)c(OC)c3C)nc2n1 (stereo not drawn) [NCGC00386399-04] | – |

The remaining lines, values behind:

| SMILES | Curve Class (confirmatory screen) [1, 3] | Efficacy (%) (confirmatory screen) [1, 4] | Efficacy (%) (counterscreen) [2, 8] | IC50 ([2]; Table S3, counterscreen) [µM] | Curve Class (counterscreen) [2, 9] | Confirm? (confirmatory screen) [1, 10] | Efficacy (%) [1, 11] [%] | Curve Class [1, 12] | IC50 [1, 13] [µM] | IC50 [1, 14] [µM] | further results |
| --- | --- | --- | --- | --- | --- | --- | --- | --- | --- | --- | --- |
| NS(=O)(=O)c1ccc(Cc2c(-c3ccc(F)c(-c4ccc(F)cc4)c3)nn(-c3nc(C(=O)O)cs3)c2C2CC2)cc1F.O=C(O)C(F)(F)F [NCGC00381623-01] | 3 | 124 | 250 | 79.4 | – | – | – | – | – | – | Efficacy (%) [1, 5]: -25%; Curve Class [1, 6]: -2.4; IC50 [1, 7]: 39.8 µM |
| Cn1cnc(-c2nccc3c(O)nc(OCCCC(F)(F)F)nc23)c1.O=C(O)C(F)(F)F [NCGC00381768-02] | 4 | -16 | -28 | – | 4 | – | – | – | – | – | Efficacy (%) [1, 5]: -25%; Curve Class [1, 6]: -2.4; IC50 [1, 7]: 31.6 µM |
| COc1ccc2nc3[nH]nc(C)c3c(NCCOCCO)c2c1 [NCGC00384193-04] | -2.2 | -47 | -75 | 89.1 | -2.2 | YES | -75 | -2.2 | 50.1 | – | – |
| O=C(c1ccccc1)c1c(O)cc(O)cc1O[C@@H]1O[C@H](CO)[C@@H](O)[C@H](O)[C@H]1O [NCGC00384934-01] | – | – | – | – | – | – | -29 | -1.2 | 25.1 | – | CONFIRMATORY SCREEN Efficacy (%) ([1]; confirmatory screen): -21%; CONFIRMATORY SCREEN Curve Class ([1]; confirmatory screen, qHTS curve class): 4; COUNTERSCREEN Efficacy (%) ([2]; counterscreen): -31%; COUNTERSCREEN Curve Class ([2]; counterscreen, qHTS curve class): 4 |
| O=C(O)CSc1cc(NS(=O)(=O)c2ccc(Br)cc2)c2ccccc2c1O [NCGC00386409-01] | – | – | – | – | – | – | -87 | -2.2 | 44.7 | – | Efficacy (%) (confirmatory screen) ([1]; confirmatory screen): -92%; Confirm? (confirmatory screen) ([1]; confirmatory screen, YES/NO): YES; Curve Class (confirmatory screen) [1, 15]: -1.1; IC50 [1, 16]: 12.6 µM; Efficacy (%) (counterscreen) ([2]; counterscreen): -60%; Curve Class (counterscreen) [2, 17]: -1.2; IC50 ([2]; counterscreen): 5 µM |
